From US20250205135A1, “COMPOSICION DE EXTRACTOS VEGETALES PARA PALIAR LOS EFECTOS DEL ENVEJECIMIENTO O RETRASO DE LA SENESCENCIA CELULAR” (MONTELOEDER S.L., priority 2022, published 2025)

System: normal human dermal fibroblasts (NHDF)
Assay: MTT cell proliferation assay in fibroblasts pre-aged with H2O2
Type: cell-based
Conditions: EGF 20 ng/ml positive control, after 3 hours H2O2 (500 μM)
Protocol: For the cell proliferation assay, normal human dermal fibroblasts (NHDF) were exposed for 3 hours to conditioned ageing medium containing H2O2 (500 μM). After the incubation period, the medium was replaced with fresh medium containing composition A according to the invention at different concentrations for 96 hours. Epidermal growth factor (EGF, 20 ng/ml) was included as positive control and NHDF without pretreatment in H2O2 as non-aged control (Control). Cell viability was quantified using the MTT assay.

Epidermal growth factor [EGF]
increase in cell viability compared to the aged control: +22.9%
